Experimental findings from PubChem BioAssay (NCI) are described below.

Structures are written as SMILES.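 Tested at 5 concentrations; 48 h exposure; 96-well plates; endpoints linearly interpolated, else capped at highest concentration. Abbreviation: GI50, concentration required for 50% inhibition of growth. TGI is the concentration that stops growth completely.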 A value given as a limit tells only on which side of the number the result lay.

Assay in all cases: NCI tumour cell line growth inhibition, 48 h
The test system of assay [1] is 786-0 renal.
Assay [2] concerns EKVX NSCLC.
Assay [3] concerns HT29 colon.
The subject of assay [4] is RXF 393 renal.
The subject of assay [5] is SK-OV-3 ovarian.
The subject of assay [6] is BT-549 breast.
In assay [7] the test system is HS 578T breast.
Assay [8] deals with MCF7 breast.
Assay [9] deals with MDA-MB-435.
In assay [10] the test system is PC-3 prostate.

On to `CC1=NN(c2ccccc2)C(=O)C1N=Nc1ccc(Br)cc1C` (configuration not stated), for which the TGI in assay [1], in assay [2], in assay [3], in assay [4] and in assay [5] was > 100 µM in each case.
`O=S(=O)(O)c1ccc([Se][Se]c2ccc(S(=O)(=O)O)cc2)cc1`: the TGI in assay [1], in assay [2], in [3], in [4] and in assay [5] was > 100 µM in each case.
For `O=Cc1cc2sc(C=O)cc2s1`, the TGI in assay [1], in assay [2], in [3], in assay [4] and in assay [5] was > 100 µM in each case.
`CCN(CC(O)COc1ccc2c(c1)[n+]([O-])nc(N)[n+]2[O-])C(C)=O` (configuration not stated): the TGI in assay [1], in assay [6], in assay [2], in assay [7], in [3] and in assay [8] was > 100 µM each time. Also, the TGI in [9], in assay [10] and in assay [5] was > 100 µM in each case.
For `COc1ccc(-c2oc(C=Nc3ccccc3)c([N+](=O)[O-])c2-c2ccc(OC)c(OC)c2)cc1OC`, the TGI in [1], in assay [3], in assay [4] and in [5] was > 100 µM throughout.
Turning to `O=C(C#Cc1ccccc1)Nc1ccccc1CC(c1c[nH]c2ccccc12)c1c[nH]c2ccccc12`, the TGI in [1] is 29.4 µM; in assay [2], 86.1 µM; in assay [3], 87.9 µM; in assay [4], 14 µM; in [5] it was > 100 µM.
For `CN(N=O)N1C(=O)SCC(c2ccccc2)(c2ccccc2)C1=O`, the TGI in assay [1] was > 100 µM; in assay [2], > 100 µM; in [7], > 100 µM; in assay [3], > 100 µM; in assay [8], 62.2 µM; in [9] it was 73.3 µM. For the same compound, the TGI is > 100 µM in assay [10], 59.2 µM in assay [4] and 64.6 µM in [5].
Consider `C/C(COc1ccccc1)=N\NC(N)=S`, for which the TGI in [1], in assay [2], in assay [3], in assay [4] and in assay [5] was > 100 µM each time.
Take `CCCCCCCN(CCCCCCC)C(=N)c1ccc(OC)c2ccccc12`: the GI50 is 1310 nM in assay [1]; 1.37 µM in assay [2]; 1560 nM in [7]; 1480 nM in [9]; 1.35 µM in assay [10]; 1300 nM in [4]. In addition, the GI50 in assay [5] is 1.66 µM. Further, the TGI in assay [1] is 2.95 µM; in assay [2] it was 2.85 µM; in assay [7], 3.53 µM; in assay [9], 2.89 µM; in [10], 2.78 µM; in assay [4] it was 3.01 µM. This compound also yielded a TGI in assay [5] of 3.14 µM.
Regarding `Cc1cc(NCCCCCCCCNc2cc(C)nc3cc(N(C)C)ccc23)c2ccc(N(C)C)cc2n1`, the TGI in [1] came out at 21 µM; in [2], 28.5 µM; in [4], 28.7 µM.
For the compound `COc1ccc(C2[C@@H](Cl)C(=O)N2c2ccc(OC)cc2)cc1` (some centres not stated), the TGI in [1] is > 100 µM; in [2], > 100 µM; in assay [3], > 100 µM; in assay [4], > 100 µM; in [5], 53 µM.
Consider `CCOC1=C2N=C(C(CC)c3ccc(F)cc3)N=C2C(=O)c2ccccc21` (configuration not stated), for which the TGI in assay [1] is > 100 µM; in [2] it was > 79.7 µM; in assay [3], 45.3 µM; in assay [4] it was 39.5 µM; in assay [5], > 100 µM.
As for `CC1O[C@@H]2CCCCC(=O)[C@]2(C)[C@H]1C` (some centres not stated), the TGI in [1], in [2], in assay [3], in assay [4] and in assay [5] was > 100 µM each time.
Take `CCC(/C(=N/NC(=O)C[N+](C)(C)C)c1ccccc1)C1OC(=O)c2ccccc21` (configuration not stated): the TGI in [1], in assay [3], in [4] and in assay [5] was > 100 µM each time.
Consider `O=C(Nc1cccc(Cl)c1)Nc1cc(C(F)(F)F)ccc1Cl`, for which the GI50 in assay [1] was 2860 nM; in assay [6], 2810 nM; in assay [7], 2630 nM; in assay [3], 3.03 µM; in assay [8] it was 3130 nM; in [10], 3.86 µM. Further, the results for the GI50 in assay [4] and in assay [5] were 1120 nM and 3.54 µM, respectively. The TGI in assay [1] came out at 12 µM; in assay [6], 10.1 µM; in assay [7] it was 8.39 µM; in assay [3] it was 11.3 µM; in assay [8], 18.1 µM; in assay [10], 32.8 µM. Besides, the TGI was determined as 3.95 µM in assay [4] and 16.5 µM in assay [5].
For the compound `CC(C)(C)c1cc([Si](C)(C)C)c(C#N)c([Si](C)(C)C)c1`, the TGI in assay [1], in assay [2], in assay [3], in assay [4] and in [5] was > 100 µM each time.
Regarding `Cc1ccccc1N=C(c1ccccc1)C1C(=O)c2ccccc2C1=O`, the GI50 in assay [1] was 7050 nM; in assay [2], 22.2 µM; in assay [7], 18300 nM; in assay [3], 13.7 µM; in assay [8] it was 1480 nM; in assay [9] it was 3440 nM. The GI50 in assay [10] was 18.9 µM; in assay [4], 7370 nM; in [5] it was 3.68 µM. Moreover, the TGI in [1] is 36 µM; in assay [2], 87.6 µM; in assay [7], 95.3 µM; in assay [3] it was > 100 µM; in assay [8], 19.3 µM; in assay [9], 14.8 µM. Further, the TGI in [10] was 62 µM; in assay [4], > 100 µM; in assay [5], 77.2 µM.
